Assay results: patent US10160763B2, “WDR5 inhibitors and modulators” (Vanderbilt University, priority 2016, dated 2018)

target: WDR5 (Δ23, residues 24-334) (Homo sapiens, UniProt P61964); assay: biochemical; details: Kd (M), FPA-based binding affinity at the WDR5 WIN site; IC50 converted to Kd by modified Cheng-Prusoff equation; average of two experiments

Structure (SMILES)	Kd
CC(NC(=O)Cc1ccc(F)c(Cl)c1)c1cc(-c2cn3c(n2)CCC3)ccc1F (centres unmarked) [B222]	9.9e-08 M
O=C(Cc1ccc(Cl)nc1)NCc1cccc(-c2cn3c(n2)CCC3)c1 [B135]	8.7e-08 M
O=C(NCc1cccc(-c2cn3c(n2)CCC3)c1)c1ccc(Cl)cc1Cl [B4]	3.9e-06 M
COc1cccc(C(=O)N(Cc2cc(-c3cn4c(n3)CCC4)ccc2N2CCCC2)CC2CC2)c1 [B102]	5.1e-07 M
CC(NC(=O)Cc1ccc(F)c(Cl)c1)c1cccc(-c2cn3c(n2)CCC3)c1 (centres unmarked) [B206]	1.35e-06 M
N#Cc1cccc(C(=O)NCc2cccc(-c3cn4c(n3)CCC4)c2)c1 [B172]	2.18e-07 M
Cc1ccccc1-c1ccc(-c2cn3c(n2)CCC3)cc1CNC(=O)Cc1ccc(Cl)c(Cl)c1 [B145]	6.77e-06 M
COc1cc(C(=O)NC(C)c2cc(-c3cn4c(n3)CCC4)ccc2N2CCOCC2)ccc1C (centres unmarked) [B213]	4.7e-08 M
O=C(Cc1ccc(Cl)c(Cl)c1)N(Cc1cc(-c2cn3c(n2)CCC3)ccc1N1CCCC1)CC1CC1 [B146]	4.16e-07 M
COc1cccc(CN(Cc2cccc(-c3cn4c(n3)CCC4)c2)C(=O)c2ccc(OC)c(OC)c2)c1 [B64]	5.38e-07 M
O=C(NCc1cccc(-c2cn3c(n2)CCC3)c1)C(c1ccccc1)c1ccccc1 [B67]	1.06e-06 M
O=C(CC12C[C@H]3C[C@@H](C1)C[C@@H](C2)C3)NCc1cccc(-c2cn3c(n2)CCC3)c1 [B107]	5.6e-08 M
CCOc1cccc(C(=O)N(C)Cc2cccc(-c3cn4c(n3)CCC4)c2)c1 [B110]	1e-09 M
Cc1ccc(C(=O)NCc2cccc(-c3cn4c(n3)CCC4)c2)cc1C [B21, N-(3-(6,7-Dihydro-5H-pyrrolo[1,2-a]imidazol-2-yl)benzyl)-3,4-dimethylbenzamide]	7.04e-07 M
O=C(NCc1cccc(-c2cn3c(n2)CCC3)c1)C1CCc2ccccc2C1 (centres unmarked) [B42]	5.26e-07 M
COc1ccc(C(=O)N(Cc2cccc(-c3cn4c(n3)CCC4)c2)C(C2CC2)C2CC2)cc1OC [B55]	5.25e-06 M
COc1cccc(C(=O)NCc2cc(-c3cn4c(n3)CCC4)ccc2OC2CCCC2)c1 [B117]	1e-05 M
CS(=O)(=O)N1CCCCC1C(=O)NCc1cccc(-c2cn3c(n2)CCC3)c1 (centres unmarked) [B182]	1.09e-06 M
O=C(Cc1ccc(Cl)c(Cl)c1)N(Cc1cc(-c2cn3c(n2)CCC3)ccc1OCC1CC1)CC1CC1 [B100]	2e-07 M
Cc1cc(Cl)cc(C(=O)NCc2cccc(-c3cn4c(n3)CCC4)c2)c1 [B160]	1.81e-06 M

Structure (SMILES)	Kd
O=C(CCc1ccccc1)NCc1cccc(-c2cn3c(n2)CCC3)c1 [B13]	2.3e-06 M
Cc1ccc(-c2ccc(-c3cn4c(n3)CCC4)cc2CNC(=O)Cc2ccc(Cl)c(Cl)c2)cc1 [B163]	1e-05 M
COc1ccc(C(=O)N(Cc2cccc(-c3cn4c(n3)CCC4)c2)CC2CC2)cc1OC [B59]	6.18e-07 M
CN1CCN(c2ccc(-c3cn4c(n3)CCC4)cc2CNC(=O)Cc2ccc(Cl)c(Cl)c2)CC1 [B142]	1.2e-07 M
COc1cccc(C(=O)NCc2cc(-c3cn4c(n3)CCC4)ccc2Oc2ccccc2)c1 [B119]	1.8e-08 M
CC(=O)N1CCCC(C(=O)NC(C)c2cc(-c3cn4c(n3)CCC4)ccc2OC2CCC2)C1 (centres unmarked) [B208]	2.2e-08 M
O=C(Cc1cccc(OC(F)(F)F)c1)NCc1cccc(-c2cn3c(n2)CCC3)c1 [B137]	2.6e-08 M
O=C(NCc1cccc(-c2cn3c(n2)CCC3)c1)c1ccc(O)nc1 [B26]	2.68e-06 M
O=C(Cc1ccc(Cl)c(Cl)c1)NCc1cc(-c2cn3c(n2)CCC3)ccc1Oc1ccccc1 [B125]	2.2e-07 M
O=C(CCc1cccc(Cl)c1)NCc1cccc(-c2cn3c(n2)CCC3)c1 [B158]	4.99e-06 M
O=C(C1CCCNC1)N(Cc1cccc(-c2cn3c(n2)CCC3)c1)CC1CC1 (centres unmarked) [B48]	2.71e-05 M
O=C(Cc1ccc2c(c1)CCO2)NCc1cccc(-c2cn3c(n2)CCC3)c1 [B153]	6.04e-07 M
O=C(NCc1cccc(-c2cn3c(n2)CCC3)c1)C1CCNCC1 [B27]	4.19e-06 M
COc1cccc(C(=O)N(Cc2cccc(-c3cn4c(n3)CCC4)c2)C(C)c2cccc(Cl)c2)c1 (centres unmarked) [B83]	4.51e-07 M
CC(c1cccc(-c2cn3c(n2)CCC3)c1)N(CC1CC1)C(=O)Cc1ccc(Cl)c(Cl)c1 (centres unmarked) [B190]	1.1e-08 M
CC(=O)N1CCCCC1C(=O)NCc1cccc(-c2cn3c(n2)CCC3)c1 (centres unmarked) [B188]	3.3e-08 M
CC(C)N(Cc1cccc(-c2cn3c(n2)CCC3)c1)C(=O)Nc1cc(Cl)cc(Cl)c1 [B72]	3.01e-07 M
O=C(Cc1ccc(F)c(Cl)c1)NCc1cc(-c2cn3c(n2)CCC3)ccc1N1CCOCC1 [B193]	3.23e-06 M
O=C(Cc1ccc(F)c(Cl)c1)NCc1cc(-c2cn3c(n2)CCC3)cnc1OC1CCC1 [B224]	6.1e-08 M

The remaining molecules from weak to strong by Kd, led by results:

Kd	Structure (SMILES)
1e-05 M	CC(=O)N1CCCC(C(=O)N(Cc2cc(-c3cn4c(n3)CCC4)ccc2OC2CCC2)CC2CC2)C1 (centres unmarked) [B161]
1e-05 M	O=C(CC1CCNCC1)NCc1cccc(-c2cn3c(n2)CCC3)c1 [B150]
6e-06 M	O=C(Cc1cccc(Cl)c1)NCc1cccc(-c2cn3c(n2)CCC3)c1 [B133]
3.83e-06 M	O=C(NCc1cccc(-c2cn3c(n2)CCC3)c1)Nc1ccccc1 [B22]
2.81e-06 M	O=C(C1CCc2ccccc2C1)N(Cc1cccc(-c2cn3c(n2)CCC3)c1)CC1CC1 (centres unmarked) [B62]
2.28e-06 M	O=C(NCc1cccc(-c2cn3c(n2)CCC3)c1)c1cc(Cl)cc(Cl)c1 [B5]
2.22e-06 M	COc1cccc(C(=O)NCc2cc(-c3cn4c(n3)CCC4)ccc2N2CCN(C)CC2)c1 [B147, N-(5-(6,7-dihydro-5H-pyrrolo[1,2-a]imidazol-2-yl)-2-(4-methylpiperazin-1-yl)benzyl)-3-methoxybenzamide]
2.17e-06 M	O=C(Cc1ccc(F)c(Cl)c1)NCc1cc(-c2cn3c(n2)CCC3)ccc1OC1CCC1 [B197]
2.08e-06 M	COC1CCN(c2ccc(-c3cn4c(n3)CCC4)cc2CNC(=O)Cc2ccc(Cl)c(Cl)c2)C1 (centres unmarked) [B177]
2.04e-06 M	COc1cc(C(=O)NCc2cc(-c3cn4c(n3)CCC4)ccc2N2CCOCC2)ccc1C [B194]
1.73e-06 M	COc1cccc(C(=O)NCc2cc(-c3cn4c(n3)CCC4)ccc2N2CCC(OC)C2)c1 (centres unmarked) [B178]
1.37e-06 M	CC(=O)N1CCC(C(=O)NCc2cccc(-c3cn4c(n3)CCC4)c2)CC1 [B25, 1-Acetyl-N-(3-(6,7-dihydro-5H-pyrrolo[1,2-a]imidazol-2-yl)benzyl)piperidine-4-carboxamide]
1.18e-06 M	O=C(NCc1cccc(-c2cn3c(n2)CCC3)c1)c1ccc2c(c1)OCO2 [B56]
9.61e-07 M	O=C(NCc1cc(-c2cn3c(n2)CCC3)ccc1N1CCOCC1)c1cc(Cl)ccn1 [B195]
6.12e-07 M	CN(Cc1cccc(-c2cn3c(n2)CCC3)c1)C(=O)Cc1cc(Cl)cc(Cl)c1 [B71]
5.61e-07 M	O=C(NCc1cccc(-c2cn3c(n2)CCC3)c1)C1CC1c1ccccc1 (centres unmarked) [B39]
4.85e-07 M	O=C(C1CC1c1ccccc1)N(Cc1cccc(-c2cn3c(n2)CCC3)c1)CC1CC1 (centres unmarked) [B51]
4.73e-07 M	COc1cccc(C(=O)NCc2cc(-c3cn4c(n3)CCC4)ccc2N2CCCC2)c1 [B114]
4.25e-07 M	CCC(C)N(Cc1cccc(-c2cn3c(n2)CCC3)c1)C(=O)c1cccc(OC)c1 (centres unmarked) [B86]

Kd	Structure (SMILES)
4.15e-07 M	COc1ccc(CN(Cc2cccc(-c3cn4c(n3)CCC4)c2)C(=O)c2ccc(OC)c(OC)c2)cc1 [B65]
3.35e-07 M	COc1cccc(C(=O)N(Cc2cc(-c3cn4c(n3)CCC4)ccc2C)CC2CC2)c1 [B23]
3.1e-07 M	CCC(=O)N1CCCC(C(=O)NC(C)c2cc(-c3cn4c(n3)CCC4)ccc2OC2CCC2)C1 (centres unmarked) [B210]
3.09e-07 M	O=C(Cc1cccc(Br)c1)NCc1cccc(-c2cn3c(n2)CCC3)c1 [B136]
2.76e-07 M	O=C(Cc1ccc(Cl)c(Cl)c1)NCc1cc(-c2cn3c(n2)CCC3)ccc1OCc1ccccc1 [B116]
2.64e-07 M	O=C(Cc1c[nH]c2ccccc12)NCc1cccc(-c2cn3c(n2)CCC3)c1 [B122]
2.05e-07 M	COc1cccc(NC(=O)NCc2cccc(-c3cn4c(n3)CCC4)c2)c1 [B24]
1.59e-07 M	COc1cc(C(=O)N(Cc2cc(-c3cn4c(n3)CCC4)ccc2N2CCOCC2)CC2CCCCC2)ccc1C [B198]
1.55e-07 M	CC(C)C(=O)N1CCCC(C(=O)NCc2cccc(-c3cn4c(n3)CCC4)c2)C1 (centres unmarked) [B185]
1.33e-07 M	O=C(Cc1ccc(Br)cc1)NCc1cccc(-c2cn3c(n2)CCC3)c1 [B106]
1.12e-07 M	COc1cc(C(=O)NCc2cc(-c3cn4c(n3)CCC4)ccc2N2CC(C)OC(C)C2)ccc1C (centres unmarked) [B174]
9.1e-08 M	COc1cc(C(=O)NCc2cc(-c3cn4c(n3)CCC4)cnc2N2CCOCC2)ccc1C [B223, N-((5-(6,7-dihydro-5H-pyrrolo[1,2-a]imidazol-2-yl)-2-morpholinopyridin-3-yl)methyl)-3-methoxy-4-methylbenzamide]
5.8e-08 M	O=C(NCc1cccc(-c2cn3c(n2)CCC3)c1)c1ccc(F)c(F)c1 [B166]
5.2e-08 M	O=C(Cc1ccc(Cl)c(Cl)c1)N(Cc1cc(-c2cn3c(n2)CCC3)ccc1N1CCOCC1)CC1CC1 [B175, N-(Cyclopropylmethyl)-2-(3,4-dichlorophenyl)-N-(5-(6,7-dihydro-5H-pyrrolo[1,2-a]imidazol-2-yl)-2-morpholinobenzyl)acetamide]
2.3e-08 M	COc1cccc(C(=O)NC(C)c2cccc(-c3cn4c(n3)CCC4)c2)c1 (centres unmarked) [B205]
1.6e-08 M	COc1cc(C(=O)NC(C)c2cc(-c3cn4c(n3)CCC4)ccc2OC2CCC2)ccc1C (centres unmarked) [B207]
1.4e-08 M	CC(C)N(Cc1cc(-c2cn3c(n2)CCC3)ccc1OC1CCC1)C(=O)Cc1ccc(Cl)c(Cl)c1 [B148]
1.3e-08 M	COc1cccc(C(=O)NCc2cc(-c3cn4c(n3)CCC4)ccc2OCc2ccccc2)c1 [B115]
1.1e-08 M	CCC(=O)N1CCCC(C(=O)NC(C)c2cccc(-c3cn4c(n3)CCC4)c2)C1 (centres unmarked) [B211]
